Our source for the IC50 values is ChEMBL document CHEMBL4482324, “Ash1l inhibitors and methods of treatment therewith” (2017).

A value given as a limit tells only on which side of the number the result lay.

The assay deals with Histone-lysine N-methyltransferase ASH1L (Homo sapiens, UniProt Q9NR48). Kind of assay: Inhibition of MOCR-fused ASH1L SET-BAH ( 2069 to 2833 amino acids) (unknown origin) expressed as in Escherichia coli BL21 (DE3) T1R cells using SAM and chicken mono/dinucleosomes incubated for 1 hr by scintillation counting assay.
In the case of `NC(=S)c1cccc(-c2cn(CO)c3ccccc23)c1`, the IC50 (as a rule, the concentration at which inhibition is half-maximal) lay in the range of 20 to 100 µM.
On to `NC(=S)c1cccc(-c2cn(C3CCN(S(=O)(=O)C(F)(F)F)CC3)c3cc(CNC(=O)Cc4ccc[nH]4)ccc23)c1`, for which the IC50 is less than 20 µM.
Under `NC(=S)c1cccc(-c2cn(CCC(O)C(F)(F)F)c3cc(N)ccc23)c1` (stereo not drawn) stands 20 to 100 µM; under `NC(=S)c1cccc(-c2cn(CC(O)CO)c3cc(N)ccc23)c1` (stereo not drawn), less than 20 µM; under `NC(=S)c1cc(O)cc(-c2cn(CCCC(F)(F)F)c3cc(N)ccc23)c1`, 20 to 100 µM.
Under `COc1cc(C(N)=S)cc(-c2cn(CCCC(F)(F)F)c3cc(N)ccc23)c1` stands 20 to 100 µM; under `NC(=S)c1cccc(-c2cn(CC(O)C(F)(F)F)c3cc(CO)ccc23)c1` (stereo not drawn), less than 20 µM; under `NC(=S)c1cccc(-c2cn(Cc3cn[nH]c3)c3cc(N)ccc23)c1`, 20 to 100 µM.
The compound `NC(=S)c1cccc(-n2cc(N3CCCCC3)c3cc(CO)ccc32)c1` came in with a half-inhibitory concentration (IC50) of less than 20 µM.
For the compound `NC(=S)c1cccc(-c2ccccc2)c1`, the IC50 is more than 100 µM.
With `CS(=O)(=O)NCc1ccc2c(-c3cccc(C(N)=S)c3)cn(CCCC(F)(F)F)c2c1`, the IC50 was less than 20 µM.
Under `CNc1ccc(-c2cccc3[nH]ccc23)cc1C(N)=S` stands more than 100 µM; under `CC(O)COC(C)Cn1cc(-c2cccc(C(N)=S)c2)c2ccccc21` (stereo not drawn), 20 to 100 µM; under `NC(=S)c1cccc(-c2cn(CC(CF)CF)c3cc(NC(CO)CO)ccc23)c1`, less than 20 µM.
In turn, `NC(=S)c1cccc(-c2cn(CCC(F)F)c3cc(NC(=O)CC4CC4)ccc23)c1` returned a half-inhibitory concentration (IC50) of less than 20 µM.
The compound `NC(=S)c1cccc(-c2cccc(OCc3ccccc3)c2)c1` showed an IC50 of more than 100 µM.
Take `NC(=S)c1cccc(-c2cn(C3CCN(S(=O)(=O)CCCCCc4cccc5c4C(=O)N(C4CCC(=O)NC4=O)C5=O)CC3)c3cc(CNc4nnc(N)s4)ccc23)c1` (stereo not drawn): the 50% inhibitory concentration (IC50) is less than 20 µM.
Turning to `NC(=S)c1cccc(-c2c[nH]c3cc(N)ccc23)c1`, the half-maximal inhibitory concentration (IC50) was 20 to 100 µM.
Regarding `NC(=S)c1cccc(-n2cc(C3CCCCC3O)c3cc(CO)ccc32)c1` (stereo not drawn), the 50% inhibitory concentration (IC50) is less than 20 µM.
Consider `NCc1ccnc(-n2cccc2)c1`, for which the IC50 was more than 100 µM.
On to `NC(=S)c1cccc(-c2ccc(O)cc2)c1`, for which the IC50 is more than 100 µM.
Take `NCCOCCOc1ccc(-c2cccc(C(N)=S)c2)c2cc[nH]c12`: the half-inhibitory concentration (IC50) fell in the range of 20 to 100 µM.
Consider `CCCS(=O)(=O)N1CCC(n2cc(-c3cccc(C(N)=S)c3)c3ccc(CNc4nnc(N)s4)cc32)CC1`, for which the IC50 is less than 20 µM.
Under `NC(=S)c1cccc(-c2cn(CCC(F)F)c3cc(CO)cc(F)c23)c1` stands less than 20 µM; under `COC(=O)c1ccc2c(-c3cccc(C(N)=S)c3)c[nH]c2c1`, 20 to 100 µM.
Turning to `NC(=S)c1cccc(-c2cn(C3CCOCC3)c3cc(CNc4nnc(N)s4)ccc23)c1`, the IC50 was less than 20 µM.
Turning to `NC(=S)c1ccc(-c2ccc(O)cc2)s1`, the IC50 is more than 100 µM.
`NC(=S)c1cccc(-c2ccc(O)c3c2CCC3)c1` had a concentration for half-maximal inhibition (IC50) of more than 100 µM.
As for `NC(=S)c1cc(-c2ccc(O)cc2)ccc1F`, the IC50 was more than 100 µM.
Consider `NC(=S)c1cccc(-c2ccc(O)c3c2CCC3=O)c1`, for which the IC50 was more than 100 µM.
With `Cc1cc(C)n2c1C=C1C=CC(CCCCC(=O)NCCOCCOc3ccc(-c4cccc(C(N)=S)c4)c4cc[nH]c34)=[N+]1[B-]2(F)F`, the IC50 was more than 100 µM.
As to `NC(=S)c1c[nH]c(=O)c(-c2cn(CCC(F)F)c3cc(CO)ccc23)c1`, the concentration for half-maximal inhibition (IC50) was less than 20 µM.
On to `NC(=S)c1cccc(-c2ccc(O)cc2)n1`, for which the IC50 is more than 100 µM.
`NC(=S)c1cccc(-c2cn(CC(C(F)F)C(F)F)c3cc(C(O)CCF)ccc23)c1` (stereo not drawn) had an IC50 of less than 20 µM.
As to `NC(=S)c1cccc(-c2cn(CCCC(F)(F)F)c3ccc(N)cc23)c1`, the IC50 lay in the range of 20 to 100 µM.
Compound `NC(=S)c1cc(-c2cn(CC(CF)CF)c3cc(CO)ccc23)ccc1F` returned a half-maximal inhibitory concentration (IC50) of less than 20 µM.
The figure for `NC(=S)c1cccc(-c2cccc3[nH]ccc23)c1O` is more than 100 µM; for `NC(=S)c1cccc(-c2cn(CCCC(F)(F)F)c3cc(CNCc4cn[nH]n4)ccc23)c1` it is less than 20 µM.
